Measured values from patent US20250074966A1, “AGENTS AND METHODS FOR PREVENTING OR INHIBITING ADAPTIVE IMMUNE RESPONSES ASSOCIATED WITH MULTIPLE SCLEROSIS” (Adaptive Biotechnologies Corporation, priority 2023, published 2025).

Test system: ZO-1
Experiment: Primary human T cells transfected with TCRs co-cultured overnight with HLA-DRB1*15:01 positive K562 target cells expressing antigen-encoding constructs, T cell activation via CD137 expression
Type: cell-based
Details: antigen-encoding construct delivered as IVT RNA to K562 cells

Sequence: MEETAIWEQHTVTLHRA [ZO-1]
- processing and presentation of the antigen by HLA-DRB1*15:01 positive target cells: processed and presented
